Data set [1] is described as follows: Metabolic stability, human hepatocytes. It counts as in vitro ADME.
The target of a further data set is T1, Dvl PDZ domain (Homo sapiens, UniProt O14640).
T1 construct: plasmid DNA encoding Dvl-1247- 341 (the Dvl PDZ domain); His-tag (TEV-cleavable) (cleaved yes); made in house; host or cells: E. coli BL21 (DE3)
T1 sequence (O14640 247-341 limits assumed): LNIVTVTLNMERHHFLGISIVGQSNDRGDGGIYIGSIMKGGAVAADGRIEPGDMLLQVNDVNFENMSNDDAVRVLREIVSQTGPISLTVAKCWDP
The data set is described as follows: NMR titration (1H-15N-HSQC). It counts as binding. How it is done: For NMR titration, ^1H‐^15N‐heteronuclear single‐quantum coherence spectroscopy (HSQC) was performed using various molar ratios of ^15N‐labeled Dvl PDZ domain relative to the DBM peptide, KY‐02061, or KY‐02327. For the Dvl PDZ domain and DBM titration, the molar ratios of ^15N‐labeled Dvl PDZ domain to peptide ligand were 1:5, 1:10, 1:15, 1:20, and 1:25. For the Dvl PDZ domain and KY‐02061 titration, the molar ratios were 1:10, 1:20, 1:40, 1:60, and 1:80. For the Dvl PDZ domain and KY‐02327 titration, the molar ratios were 1:0, 1:5, 1:10, and 1:20. All spectra were processed using XWINNMR (Bruker Biospin Corp., Billerica, MA) and NMRpipe/NMRDraw software (Delaglio et al, 1995). Using the Sparky program, all residues in each spectrum were completely assigned, and the chemical shift perturbations were calculated using the equation ΔδAV = ((Δδ1H)^2 + (Δδ15N/5)^2)^1/2, where ΔδAV, Δδ1H, and Δδ15N are the average, proton, and ^15N chemical shift changes, respectively. The residues showing ΔδAV > 0.05 were selected as residues participating in the interaction.
Dvl PDZ domain purification
E. coli strain BL21 (DE3) was transformed with plasmid DNA encoding Dvl-1247-341 (the Dvl PDZ domain), and the cells were grown in M9 minimal medium containing 15N isotope for 17 hours at 21°C and after then 1 mM isopropyl-1-thio-β -D-thiogalactopyranoside was treated. […]

The test system of a further data set is Wnt/β‐catenin pathway. Description: TOPflash reporter assay. It counts as cell-based, murine. Particulars: MC3T3E1 cells, 2 days. The procedure:
Figure 3 Effect of KY‐02061 on Wnt/β‐catenin pathway, osteoblast differentiation, and ex vivo‐cultured calvaria growth • A MC3T3E1 cells were transfected with pTOPFLASH together with pCMV‐β‐gal. After 24 h, the cells were treated with DMSO, KY‐02061 in DMSO, or 5 μM PolyR‐DBM for 2 days. The luciferase activities of whole‐cell lysates were measured and normalized with β‐galactosidase activities. (n = 3) • B Primary calvaria cells were isolated from the calvariae of 4‐day‐old mice (Manton et al, 2007) and treated with DMSO or KY‐02061 in DMSO for 4 days. ALP activity levels were visualized by ALP staining. • C Primary calvaria cells were treated with DMSO or 5 μM KY‐02061 in DMSO for 14 days. […] The calvaria thicknesses were measured from the stained sections using Image Pro software (E). […] (error bars), and significance was assessed using unpaired Student's t‐test.
Figure 5 Effects of KY‐02327 on Wnt/β‐catenin pathway and osteoblast differentiation in osteoblasts • A MC3T3E1 cells were transfected with pTOPFLASH together with pCMV‐β‐gal. […] The luciferase activities of whole‐cell lysates were measured and normalized with β‐galactosidase activities. (n = 3) • B, C MC3T3E1 cells were treated with indicated concentrations of KY‐02327 for 2 days. β‐Catenin and α‐tubulin were detected by immunoblot (B) or immunofluorescence (C) analyses. […] The mRNA level of osteocalcin (OCN) was measured by qRT–PCR. […]
(In general: In a reporter assay the amount or activity of a reporter protein is the signal.)

For `CCOC(=O)Cn1c(C(=O)OCC)cc2cc(OS(=O)(=O)c3ccc(C)cc3)ccc21` [KY‐02061], in data set [1], the “Metabolic Stability (%) Human” value is on record as 25.2 ± 3% and the “metabolic stability (in words)” value is listed as “poor metabolic stability”. Besides, the “residues of Dvl PDZ domain perturbed (chemical shift change > 0.05)” value on Dvl PDZ domain was “one residue in βB (S265) and three residues in αB (L321, R322, and V325) were perturbed”. In addition, the “activation of the Wnt/β‐catenin pathway (TOPflash luciferase)” value in the data set with Wnt/β‐catenin pathway is “increased”.
With `CCOC(=O)c1cc2cc(O)ccc2n1CC(=O)NCCN1CCCCC1` [KY‐02327], the “stability, fold more stable than KY‐02061” value in data set [1] came to 1.3 fold. Besides, the “residues of Dvl PDZ domain perturbed (chemical shift change > 0.05)” value on Dvl PDZ domain is “one residue in βA (I250) and three residues in αB (V318, R322, and V325) of Dvl PDZ were perturbed”. For the same compound, in the data set with Wnt/β‐catenin pathway, the “activation of the Wnt/β‐catenin pathway (TOPflash luciferase)” value is on record as “dose‐dependent effect”.

These data come from PMC4818757, “Small molecule inhibitors of the Dishevelled‐CXXC5 interaction are new drug candidates for bone anabolic osteoporosis therapy” (EMBO Molecular Medicine, 2016).
